Results as given in US10591445B2, “Methods for analysis and resolution of preparations of dianhydrogalactitol and derivatives or analogs thereof” (Del Mar Pharmaceuticals (BC) Ltd., priority 2015, dated 2020).
One block for each molecule: values may come before it.

Columns and labels:
[1] = Solution stability of DAG sample solution (HPLC-ELSD); type: physicochemical; conditions: 8 mg/mL in acetonitrile/water (85:15)
Method: The test sample solutions (nominal 8 mg/mL) are prepared as follows. The sample preparation for DAG drug substance or API can be as follows. Accurately weigh, in duplicate, about 80 mg of DAG API sample into clean 10 mL volumetric flasks. Dissolve DAG API sample in approximately 5 mL of diluent, diluted to volume with diluent, and mix. The sample preparation for DAG drug product (lyophilized powder, 40 mg/vial) can be as follows: Clean and remove the closure of the vial. Reconstitute the lyophilized vial with 5.0 mL diluent to yield an 8 mg/mL solution. Prepare samples in duplicate (using 2 vials). The sample solutions can be stored up to 48 hrs at 2-8° C. and 52 hrs at ambient laboratory conditions.
With respect to solution stability, the recovery of the aged solutions should be within 85%-115% of the initial assay. […]
The experimental approach for determining solution stability was as follows: For a standard solution, a dulcitol standard solution was prepared at 1.0% of DAG nominal conc. in one replicate and placed the solution under ambient laboratory conditions and refrigerated conditions (2-8° C.), respectively, using 1% Linearity standard solutions). […] For time points of less than 24 hours, solution stability is evaluated against fresh standards. The recovery of the aged solutions is evaluated. […] For time points of less than 24 hours, solution stability is evaluated against fresh standards.

[2] = Solution stability of dulcitol standard solution (HPLC-ELSD); type: physicochemical; conditions: for Assay / Concentration: standard solution
Method: The standard solutions can be stored up to 48 hrs at 2-8° C. and can be stored up to 52 hrs at ambient laboratory condition. The standard solutions can be used to generate a standard curve as described further below.
With respect to solution stability, the recovery of the aged solutions should be within 85%-115% of the initial assay. The absolute difference should be no more than 0.2% for an impurity at ≤1.0%. For an impurity >1.0%, the result of the aged solution should be within 80%-120% of the original. No new impurities at ≥1.0% should be observed.
The experimental approach for determining solution stability was as follows: For a standard solution, a dulcitol standard solution was prepared at 1.0% of DAG nominal conc. in one replicate and placed the solution under ambient laboratory conditions and refrigerated conditions (2-8° C.), respectively, using 1% Linearity standard solutions). The solution was reanalyzed at different time intervals, such as 2 hours, 4 hours, 8 hours, 24 hours and 48 hours. For time points of less than 24 hours, solution stability is evaluated against fresh standards. The recovery of the aged solutions is evaluated. For sample solutions, a sample solution at a specified DAG nominal concentration was prepared in one replicate and placed under laboratory conditions at ambient temperature or under refrigerated conditions (2-8° C.). The solution was reanalyzed at different time intervals, such as 2 hours, 4 hours, 8 hours, 24 hours and 48 hours. For time points of less than 24 hours, solution stability is evaluated against fresh standards.

[3] = ambient laboratory conditions, 0 h
[4] = ambient laboratory conditions, 2 h
[5] = ambient laboratory conditions, 4 h
[6] = ambient laboratory conditions, 8 h
[7] = ambient laboratory conditions, 25 h
[8] = ambient laboratory conditions, 48 h

Time the sample solutions can be stored ([1]; 2-8° C.): up to 48 hrs | Time the sample solutions can be stored ([1]; ambient laboratory conditions): ≤ 52 h
Compound: OC(C1CO1)C(O)C1CO1 (stereo not shown) [DAG, 1,2:5,6 dianhydrogalactitol]

Time the standard solutions can be stored ([2]; 2-8° C.): up to 48 hrs | Time the standard solutions can be stored ([2]; ambient laboratory condition): up to 52 hrs | Assay ([2]; 2-8° C., 0 h): 109.233% | Concentration ([2]; 2-8° C., 0 h): 89.5 µg/mL | Assay ([2]; 2-8° C., 2 h): 109.076% | Concentration ([2]; 2-8° C., 2 h): 89.4 µg/mL | Assay ([2]; 2-8° C., 4 h): 109.164% | Concentration ([2]; 2-8° C., 4 h): 89.5 µg/mL | Assay ([2]; 2-8° C., 8 h): 108.302% | Concentration ([2]; 2-8° C., 8 h): 88.8 µg/mL | Assay ([2]; 2-8° C., 25 h): 109.056% | Concentration ([2]; 2-8° C., 25 h): 89.4 µg/mL | Assay ([2]; 2-8° C., 48 h): 108.947% | Concentration ([2]; 2-8° C., 48 h): 89.3 µg/mL | Assay [2, 3]: 109.944% | Concentration [2, 3]: 89.8 µg/mL | Assay [2, 4]: 109.778% | Concentration [2, 4]: 89.7 µg/mL | Assay [2, 5]: 109.059% | Concentration [2, 5]: 89.1 µg/mL | Assay [2, 6]: 108.590% | Concentration [2, 6]: 88.7 µg/mL | Assay [2, 7]: 110.553% | Concentration [2, 7]: 90.3 µg/mL | Assay [2, 8]: 108.986% | Concentration [2, 8]: 89.1 µg/mL
Compound: OC[C@@H](O)[C@H](O)[C@H](O)[C@@H](O)CO [Dulcitol, dulcitol]
